In one data set the test system is MCF7 cell. The data set is described as follows: Inhibition of proliferation of MCF7 cell (CellTiter-Glo, 144 hours). It counts as cell-based. Conditions: Homo sapiens; for IC50: MCF7, CellTiter-Glo, read-out: IC50 of the inhibitory effect on the proliferation of MCF7 cell; for Emax: MCF7 cell proliferation, read-out: Maximum inhibition. Summed up: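 Seeded overnight, MCF7 cells were treated in MEM with 2% FBS with nine 4-fold dilutions from 100 nM (0.5% DMSO blank). Incubation 144 h at 37° C, 5% CO2. CellTiter-Glo luminescence read; IC50 from signal versus log concentration.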

The next data set has as its target Nav1.5 ion channel (Homo sapiens (Human), UniProt Q14524). The data set is described as follows: Manual patch clamp inhibition of Nav1.5 current in HEK293 cell. It counts as cell-based. As to conditions: whole-cell patch clamp, read-out: IC50 on inhibiting the Nav1.5 channel activity. How it is done:
The purpose of the experiment is to investigate the effect of the compounds on Nav1.5 ion channel in an […] experiment. Nav1.5 ion channel is stably expressed on HEK293 cell. After the Nav1.5 current becomes stable, the Nav1.5 currents before and after the administration of the compound are compared so as to obtain the effect of the compound on the Nav1.5 ion channel.
Extracellular fluid: NaCl, 137 mM; KCl, 4 mM; CaCl2), 1.8 mM; MgCl2, 1 mM; HEPES, 10; glucose, 10 mM; pH 7.4 (NaOH titration).
Intracellular fluid: aspartic acid, 140 mM; MgCl2, 2 mM; EGTA, 11 mM; HEPES, 10 mM; pH 7.2 (CsOH titration).
The test compound was dissolved in dimethyl sulfoxide (DMSO) at a stock concentration of 9 mM. The stock solution of the test compound was dissolved in the extracellular fluid on the day of the test and formulated into the required concentration.
1) The compound was formulated into solutions with specified concentrations. The solutions were added to the pipelines respectively in order from high to low concentration, and the pipelines were marked.
2) The cell was transferred to the perfusion tank, and perfused with the extracellular fluid. The intracellular fluid was stored in small batches in a −80° C. refrigerator, and melted on the day of the experiment. The electrode was pulled with PC-10 (Narishige, Japan). Recording was carried out with the whole-cell patch clamp, and the noise was filtered at one-fifth of the sampling frequency.
3) All compounds were perfused with a perfusion system that uses its own gravity. Each concentration was tested in at least two cells. After the current stabilized (or after 5 minutes), the blocking effect of the compound was calculated by comparing the changes in the current before and after the administration of the compound.
The cell was clamped at −80 mV. The cell was depolarized to Vhalf with a square wave lasting 8 milliseconds, hyperpolarized to −120 mV with a square wave lasting 20 milliseconds, and depolarized to −10 mV with a square wave lasting 20 milliseconds to obtain the Nav1.5 current. This procedure was repeated every 15 seconds. The maximum current caused by the −10 mV square wave was measured. After the current became stable, the test compound was perfused. After the response became stable, the blocking intensity was calculated.
The data was stored in the computer system for analysis. Data collection and analysis were carried out by pCLAMP 10 (Molecular Devices, Union City, CA). Stable current means that the absolute average value of the peak current of four consecutive scans exceeds 200 pA and the CV value is less than 10%, or the average value of the peak current of four consecutive scans is between 200 pA and 50 pA and the CV value is less than 30%. The average value of the last four current peaks after the current stabilized was used to calculate the effect of the compound at the concentration.
In general terms: Patch clamp records ionic current or voltage across a cell membrane.

Data set [1] concerns the target estrogen receptor ERα wild-type (Homo sapiens (Human), UniProt P03372). The experiment in a line: Covalent modification of ERα wild-type LBD by high-resolution mass spectrometry. Conditions: after 24 hours; 2 μM protein, 10 μM compound, 4° C. It counts as binding. The protocol:
The ligand binding domain (LBD, aa296-554) of estrogen receptor ERα wild-type and ERα Y537S mutant-type was expressed in E. coli and purified. 2 μM ERα wild-type or ERα Y537S mutant-type protein and 10 μM compound were added to a buffer solution containing 50 mM Tris-HCl, pH7.5, 150 mM NaCl, 1 mM TCEP and 5% glycerol and mixed well. The solution was incubated at 4° C. for 24 hours, followed by high-resolution mass spectrometry (Agilent Technologies, Agilent Q-tof 6530) assay. Alternatively, 1 μM ERα wild-type or ERα Y537S mutant-type protein and 3 μM compound were added to a buffer solution containing 50 mM Tris-HCl, pH7.5, 150 mM NaCl, 1 mM TCEP and 5% glycerol and mixed well. The solution was incubated at 37° C. for 15 minutes, followed by high-resolution mass spectrometry assay. In the mass spectrometry assay results, the peak whose molecular weight is the sum of the molecular weight of the protein and compound is the product of covalent modification. The percentage of covalent modification is obtained by calculating the ratio of […] to total protein.

SMILES strings stand for the structures.

Chain of Nav1.5 ion channel (Q14524 whole entry): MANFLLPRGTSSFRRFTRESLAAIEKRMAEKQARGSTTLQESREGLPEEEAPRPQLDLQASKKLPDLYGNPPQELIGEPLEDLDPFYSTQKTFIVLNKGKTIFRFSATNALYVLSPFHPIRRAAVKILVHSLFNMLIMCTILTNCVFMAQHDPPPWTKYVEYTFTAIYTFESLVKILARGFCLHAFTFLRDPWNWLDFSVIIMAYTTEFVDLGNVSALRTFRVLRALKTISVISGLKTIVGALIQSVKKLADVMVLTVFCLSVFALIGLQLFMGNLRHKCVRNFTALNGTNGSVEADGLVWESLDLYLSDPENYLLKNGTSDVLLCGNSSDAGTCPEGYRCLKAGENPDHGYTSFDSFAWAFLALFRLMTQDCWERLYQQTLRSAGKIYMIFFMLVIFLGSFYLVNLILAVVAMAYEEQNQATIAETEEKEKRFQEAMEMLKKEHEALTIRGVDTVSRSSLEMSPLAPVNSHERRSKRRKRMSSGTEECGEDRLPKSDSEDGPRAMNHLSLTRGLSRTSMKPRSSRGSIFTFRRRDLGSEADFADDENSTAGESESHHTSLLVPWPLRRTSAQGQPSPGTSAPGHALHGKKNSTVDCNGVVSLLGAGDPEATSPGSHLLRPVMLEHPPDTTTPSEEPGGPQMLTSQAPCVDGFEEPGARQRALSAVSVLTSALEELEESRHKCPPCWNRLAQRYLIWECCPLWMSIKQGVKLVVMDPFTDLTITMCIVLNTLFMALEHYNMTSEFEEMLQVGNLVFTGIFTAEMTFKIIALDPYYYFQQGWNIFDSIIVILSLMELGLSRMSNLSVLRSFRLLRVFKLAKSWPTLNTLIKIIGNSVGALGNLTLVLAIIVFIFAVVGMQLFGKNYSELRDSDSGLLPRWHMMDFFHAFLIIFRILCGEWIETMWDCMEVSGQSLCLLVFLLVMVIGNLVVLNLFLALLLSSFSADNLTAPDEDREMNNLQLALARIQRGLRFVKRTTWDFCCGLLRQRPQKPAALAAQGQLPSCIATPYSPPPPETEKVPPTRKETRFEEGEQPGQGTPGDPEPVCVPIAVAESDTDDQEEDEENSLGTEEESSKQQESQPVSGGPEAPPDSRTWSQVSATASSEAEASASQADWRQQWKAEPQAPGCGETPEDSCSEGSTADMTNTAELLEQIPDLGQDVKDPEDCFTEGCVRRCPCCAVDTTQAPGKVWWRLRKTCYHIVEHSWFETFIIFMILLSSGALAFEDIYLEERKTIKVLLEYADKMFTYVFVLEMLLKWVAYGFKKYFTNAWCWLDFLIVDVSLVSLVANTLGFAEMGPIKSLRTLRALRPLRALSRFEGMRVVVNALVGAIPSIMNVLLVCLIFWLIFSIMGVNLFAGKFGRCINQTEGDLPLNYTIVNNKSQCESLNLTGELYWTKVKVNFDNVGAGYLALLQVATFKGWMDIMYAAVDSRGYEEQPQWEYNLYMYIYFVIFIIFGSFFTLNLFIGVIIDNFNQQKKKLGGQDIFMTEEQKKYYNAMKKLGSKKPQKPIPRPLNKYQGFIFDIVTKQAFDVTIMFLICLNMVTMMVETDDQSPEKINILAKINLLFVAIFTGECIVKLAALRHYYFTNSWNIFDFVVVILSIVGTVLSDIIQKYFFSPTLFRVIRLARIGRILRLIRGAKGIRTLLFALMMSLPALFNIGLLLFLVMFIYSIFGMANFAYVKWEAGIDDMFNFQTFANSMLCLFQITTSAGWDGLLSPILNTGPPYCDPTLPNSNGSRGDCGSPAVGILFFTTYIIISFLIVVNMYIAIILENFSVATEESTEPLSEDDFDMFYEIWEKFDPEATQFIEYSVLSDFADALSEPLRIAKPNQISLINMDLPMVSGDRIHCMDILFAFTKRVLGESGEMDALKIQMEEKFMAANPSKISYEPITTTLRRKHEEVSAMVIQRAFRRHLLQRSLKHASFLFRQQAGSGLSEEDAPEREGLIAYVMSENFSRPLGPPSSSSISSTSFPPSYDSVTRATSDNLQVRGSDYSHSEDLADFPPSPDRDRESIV
Chain of estrogen receptor ERα wild-type (P03372 296-554): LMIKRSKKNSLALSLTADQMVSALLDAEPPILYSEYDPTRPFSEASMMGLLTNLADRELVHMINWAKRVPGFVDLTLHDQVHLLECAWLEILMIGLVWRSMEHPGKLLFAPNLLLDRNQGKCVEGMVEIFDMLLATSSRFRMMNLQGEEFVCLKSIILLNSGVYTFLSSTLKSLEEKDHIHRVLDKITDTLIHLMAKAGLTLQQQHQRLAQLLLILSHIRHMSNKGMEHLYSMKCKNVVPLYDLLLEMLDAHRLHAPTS

Turning to `O=C(/C=C/CNC1(COc2ccc(/C(=C(/CC(F)(F)F)c3ccccc3)c3ccc4[nH]nc(F)c4c3)cn2)CC1)N1CCOCC1` [Example 1, (E)-1-Morpholino-4-((1-(((5-((Z)-4,4,4-trifluoro-1-(3-fluoro-1H-indazol-5-yl)-2-phenylbut-1-en-1-yl)pyridin-2-yl)oxy)methyl)cyclopropyl)amino)but-2-en-1-one], in the data set with MCF7 cell, the IC50 came out at 0.5 nM and the Emax amounted to 100%. At Nav1.5 ion channel, the IC50 was above 10000 nM. The “Covalent modification effect on the estrogen receptor ERα wild-type” value (from here on “Covalent modification effect”) in data set [1] was 97%.
As to `CN(C)C(=O)/C=C/CN1CCC[C@@H](Oc2ccc(/C(=C(/CC(F)(F)F)c3ccccc3)c3ccc4[nH]nc(F)c4c3)cn2)C1` [Example 14, (E)-N,N-Dimethyl-4-((R)-3-((5-((Z)-4,4,4-trifluoro-1-(3-fluoro-1H-indazol-5-yl)-2-phenylbut-1-en-1-yl)pyridin-2-yl)oxy)piperidin-1-yl)but-2-enamide], in the data set with MCF7 cell, the IC50 came to 0.8 nM and the Emax worked out at 108%. Moreover, the “Covalent modification effect” value in data set [1] is on record as 93%.
The corresponding values for `O=C(/C=C/CN1CCC[C@@H](Oc2ccc(/C(=C(/CC(F)(F)F)c3ccccc3)c3ccc4[nH]nc(F)c4c3)cn2)C1)N1CCCC1` [Example 15, (E)-1-(Pyrrolidin-1-yl)-4-((R)-3-((5-((Z)-4,4,4-trifluoro-1-(3-fluoro-1H-indazol-5-yl)-2-phenylbut-1-en-1-yl)pyridin-2-yl)oxy)piperidin-1-yl)but-2-en-1-one] are 0.2 nM, 107% and 95%.
For the molecule `CN(C)C(=O)/C=C/CNC1(COc2ccc(/C(=C(/CC(F)(F)F)c3ccccc3)c3ccc4[nH]nc(F)c4c3)cn2)CC1` [Example 39, (E)-N,N-Dimethyl-4-((1-(((5-((Z)-4,4,4-trifluoro-1-(3-fluoro-1H-indazol-5-yl)-2-phenylbut-1-en-1-yl)pyridin-2-yl)oxy)methyl)cyclopropyl)amino)but-2-enamide], the figures for the IC50 with MCF7 cell and at Nav1.5 ion channel were 0.2 nM and 8200 nM, respectively. Moreover, the Emax in the data set on MCF7 cell was 113%. Besides, the “Covalent modification effect” value in data set [1] was 97%.
For `O=C(/C=C/CNC1(COc2ccc(/C(=C(/CC(F)(F)F)c3ccccc3)c3ccc4[nH]nc(F)c4c3)cn2)CC1)N1CC(O)C1` [Example 40, (E)-1-(3-Hydroxyazetidin-1-yl)-4-((1-(((5-((Z)-4,4,4-trifluoro-1-(3-fluoro-1H-indazol-5-yl)-2-phenylbut-1-en-1-yl)pyridin-2-yl)oxy)methyl)cyclopropyl)amino)but-2-en-1-one], in that order: 0.1 nM, 11500 nM, 115% and 96%.
The corresponding values for `O=C(/C=C/CNC1(COc2ccc(/C(=C(/CC(F)(F)F)c3ccccc3)c3ccc4[nH]nc(F)c4c3)cn2)CC1)N1CC[C@H](O)C1` [Example 41, (E)-1-((S)-3-Hydroxypyrrolidin-1-yl)-4-((1-(((5-((Z)-4,4,4-trifluoro-1-(3-fluoro-1H-indazol-5-yl)-2-phenylbut-1-en-1-yl)pyridin-2-yl)oxy)methyl)cyclopropyl)amino)but-2-en-1-one] are 0.1 nM, 5300 nM, 115% and 93%.
`O=C(/C=C/CNC1(COc2ccc(/C(=C(/CC(F)(F)F)c3ccccc3)c3ccc4[nH]nc(F)c4c3)cn2)CC1)N1CCO[C@@H](CO)C1` [Example 42, (E)-1-((R)-2-(Hydroxymethyl)morpholino)-4-((1-(((5-((Z)-4,4,4-trifluoro-1-(3-fluoro-1H-indazol-5-yl)-2-phenylbut-1-en-1-yl)pyridin-2-yl)oxy)methyl)cyclopropyl)amino)but-2-en-1-one]: in the data set with MCF7 cell, the IC50 came to 0.03 nM and the Emax amounted to 105%.
